{"source": "patent US10703757B2", "about": "“Compounds and methods for CDK8 modulation and indications therefor” (Plexxikon Inc., priority 2016, dated 2020)", "key": {"[1]": {"test_system": "CDK8 (phosphorylation of STAT1 at serine 727 in A549 cells)", "assay": "Cell based Phospho-STAT1 assay (IFNγ-stimulated A549 cells, AlphaLISA)", "details": "Homo sapiens, A549, A549 cells, phospho-STAT1 after IFNγ stimulation", "procedure,_shortened": "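A549 cells given serial compound dilutions for 1 h at 37 °C, then stimulated with IFNγ at 10 ng/mL final for 30 min. Lysate STAT1 Ser727 phosphorylation measured by AlphaLISA; % inhibition vs stimulated/unstimulated DMSO controls, IC50 by nonlinear regression.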"}, "[2]": {"test_system": "CDK8 (TCF/LEF luciferase reporter in HCT116 cells)", "assay": "Cell based TCF/LEF reporter assay (HCT116+TCF/LEF luciferase)", "details": "Homo sapiens, HCT-116, 24 h", "procedure,_shortened": "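Luciferase readout was corrected for viability (CellTiter-Fluor) and scaled between DMSO high and 10 uM CCT251545 low controls, giving IC50 by nonlinear regression. Compounds, serially diluted, were incubated 24 h at 37 °C on HCT116 clones stably expressing a TCF/LEF-driven luciferase reporter.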"}}, "data": [{"compound": "CC(C)(O)Cn1cc(-c2ccc(-c3cnn4ccnc(C5CCC(C#N)CC5)c34)cc2F)cn1", "note": "(stereo not shown) [Compound P-0032, (1s,4s)-4-(3-(3-fluoro-4-(1-(2-hydroxy-2-methylpropyl)-1H-pyrazol-4-yl)phenyl)pyrazolo[1,5-a]pyrazin-4-yl)cyclohexane-1-carbonitrile]", "values": [{"measurement": "IC50", "setting": "[1]", "result": "0.1 to 100", "unit": "nM"}, {"measurement": "IC50", "setting": "[2]", "result": "0.1 to 100", "unit": "nM"}]}, {"compound": "COc1ncc(C#Cc2cnc3cccc(C4=CCC(C#N)CC4)n23)cn1", "note": "(stereo not shown) [Compound P-0314, 4-(3-((2-methoxypyrimidin-5-yl)ethynyl)imidazo[1,2-a]pyridin-5-yl)cyclohex-3-ene-1-carbonitrile]", "values": [{"measurement": "IC50", "setting": "[1]", "result": "0.1 to 100", "unit": "nM"}, {"measurement": "IC50", "setting": "[2]", "result": "0.1 to 100", "unit": "nM"}]}, {"compound": "N#CC1CC=C(c2c(-c3ccc(-n4ccnn4)cc3)cnc3[nH]ccc23)CC1", "note": "(stereo not shown) [Compound P-0201, 4-(5-(4-(1H-1,2,3-triazol-1-yl)phenyl)-1H-pyrrolo[2,3-b]pyridin-4-yl)cyclohex-3-ene-1-carbonitrile]", "values": [{"measurement": "IC50", "setting": "[1]", "result": "100 to 1000", "unit": "nM"}, {"measurement": "IC50", "setting": "[2]", "result": "0.1 to 100", "unit": "nM"}]}, {"compound": "Cn1cc(C#Cc2cnc3[nH]ccc3c2C2=CCC(C#N)CC2)cn1", "note": "(stereo not shown) [Compound P-0184, 4-[5-[2-(1-methylpyrazol-4-yl)ethynyl]-H-pyrrolo[2,3-b]pyridin-4-yl]cyclohex-3-ene-1-carbonitrile]", "values": [{"measurement": "IC50", "setting": "[1]", "result": "0.1 to 100", "unit": "nM"}, {"measurement": "IC50", "setting": "[2]", "result": "100 to 1000", "unit": "nM"}]}, {"compound": "Cc1nc2cc(-c3cnn4ccnc(C5=CCC(C#N)CC5)c34)ccc2[nH]1", "note": "(stereo not shown) [Compound P-0056, 4-(3-(2-methyl-1H-benzo[d]imidazol-5-yl)pyrazolo[1,5-a]pyrazin-4-yl)cyclohex-3-ene-1-carbonitrile]", "values": [{"measurement": "IC50", "setting": "[1]", "result": "0.1 to 100", "unit": "nM"}, {"measurement": "IC50", "setting": "[2]", "result": "0.1 to 100", "unit": "nM"}]}, {"compound": "Cn1cc(-c2ccc(-c3cnn4cccc(C5=CCN(C(N)=O)CC5)c34)cc2)cn1", "note": "[Compound P-0185, 4-[3-[4-(1-methylpyrazol-4-yl)phenyl]pyrazolo[1,5-a]pyridin-4-yl]-3,6-dihydro-2H-pyridine-1-carboxamide]", "values": [{"measurement": "IC50", "setting": "[1]", "result": "100 to 1000", "unit": "nM"}, {"measurement": "IC50", "setting": "[2]", "result": "1000 to 10000", "unit": "nM"}]}, {"compound": "N#CC1CC=C(c2c(-c3ccc4c(c3)CNC4=O)cnc3[nH]ccc23)CC1", "note": "(stereo not shown) [Compound P-0244, 4-(5-(1-oxoisoindolin-5-yl)-1H-pyrrolo[2,3-b]pyridin-4-yl)cyclohex-3-ene-1-carbonitrile]", "values": [{"measurement": "IC50", "setting": "[1]", "result": "100 to 1000", "unit": "nM"}, {"measurement": "IC50", "setting": "[2]", "result": "100 to 1000", "unit": "nM"}]}, {"compound": "N#CC1CC=C(c2cccn3ncc(-c4ccc(CN5CCOCC5)c(F)c4)c23)CC1", "note": "(stereo not shown) [Compound P-0120, 4-(3-(3-fluoro-4-(morpholinomethyl)phenyl)pyrazolo[1,5-a]pyridin-4-yl)cyclohex-3-ene-1-carbonitrile]", "values": [{"measurement": "IC50", "setting": "[1]", "result": "0.1 to 100", "unit": "nM"}, {"measurement": "IC50", "setting": "[2]", "result": "100 to 1000", "unit": "nM"}]}, {"compound": "CC1=NC2(CCN(c3cccc4ncc(C#Cc5cnn(C)c5)n34)CC2)C(=O)N1", "note": "[Compound P-0276, 2-methyl-8-(3-((1-methyl-1H-pyrazol-4-yl)ethynyl)imidazo[1,2-a]pyridin-5-yl)-1,3,8-triazaspiro[4.5]dec-1-en-4-one]", "values": [{"measurement": "IC50", "setting": "[1]", "result": "1000 to 10000", "unit": "nM"}, {"measurement": "IC50", "setting": "[2]", "result": "1000 to 10000", "unit": "nM"}]}, {"compound": "O=C1NCCC12CCN(c1cccn3ncc(-c4ccc(OCCN5CCOCC5)cc4)c13)CC2", "note": "[Compound P-0135, 8-(3-(4-(2-morpholino-ethoxy)phenyl)pyrazolo[1,5-a]pyridin-4-yl)-2,8-diazaspiro[4.5]decan-1-one]", "values": [{"measurement": "IC50", "setting": "[1]", "result": "100 to 1000", "unit": "nM"}, {"measurement": "IC50", "setting": "[2]", "result": "100 to 1000", "unit": "nM"}]}, {"compound": "N#CC1CCN(c2cccn3ncc(-c4ccc(OCCN5CCOCC5)cc4)c23)CC1", "note": "[Compound P-0261, 1-(3-(4-(2-morpholino-ethoxy)phenyl)pyrazolo[1,5-a]pyridin-4-yl)piperidine-4-carbonitrile]", "values": [{"measurement": "IC50", "setting": "[1]", "result": "0.1 to 100", "unit": "nM"}, {"measurement": "IC50", "setting": "[2]", "result": "0.1 to 100", "unit": "nM"}]}, {"compound": "N#CCCCn1cc(-c2ccc(-c3cnn4ccnc(C5CCC(C#N)CC5)c34)cc2)cn1", "note": "(stereo not shown) [Compound P-0002, (1s,4s)-4-(3-(4-(1-(3-cyanopropyl)-1H-pyrazol-4-yl)phenyl)pyrazolo[1,5-a]pyrazin-4-yl)cyclohexane-1-carbonitrile]", "values": [{"measurement": "IC50", "setting": "[1]", "result": "0.1 to 100", "unit": "nM"}, {"measurement": "IC50", "setting": "[2]", "result": "0.1 to 100", "unit": "nM"}]}, {"compound": "N#CC1CC=C(c2cccn3ncc(-c4ccc(OCCN5CCOCC5)cc4)c23)CC1", "note": "(stereo not shown) [Compound P-0183, 4-(3-(4-(2-morpholino-ethoxy)phenyl)pyrazolo[1,5-a]pyridin-4-yl)cyclohex-3-ene-1-carbonitrile]", "values": [{"measurement": "IC50", "setting": "[1]", "result": "0.1 to 100", "unit": "nM"}, {"measurement": "IC50", "setting": "[2]", "result": "0.1 to 100", "unit": "nM"}]}, {"compound": "N#CC1CCC(c2nccn3ncc(-c4ccc(OCCOC5CCOCC5)cc4)c23)CC1", "note": "(stereo not shown) [Compound P-0058, (1s,4s)-4-(3-(4-(2-((tetrahydro-2H-pyran-4-yl)oxy)ethoxy)phenyl)pyrazolo[1,5-a]pyrazin-4-yl)cyclohexane-1-carbonitrile]", "values": [{"measurement": "IC50", "setting": "[1]", "result": "0.1 to 100", "unit": "nM"}, {"measurement": "IC50", "setting": "[2]", "result": "0.1 to 100", "unit": "nM"}]}, {"compound": "CC(C)(O)Cn1cc(-c2ccc(-c3cnc4[nH]ccc4c3C#CC(C)(C)C(N)=O)cc2)cn1", "note": "[Compound P-0133, 4-[5-[4-[1-(2-hydroxy-2-methyl-propyl)pyrazol-4-yl]phenyl]-1H-pyrrolo[2,3-b]pyridin-4-yl]-2,2-dimethyl-but-3-ynamide]", "values": [{"measurement": "IC50", "setting": "[1]", "result": "100 to 1000", "unit": "nM"}, {"measurement": "IC50", "setting": "[2]", "result": "100 to 1000", "unit": "nM"}]}, {"compound": "N#CC1CC=C(c2cccc3ncc(-c4ccc(-c5cnn(C(F)F)c5)cc4)n23)CC1", "note": "(stereo not shown) [Compound P-0438, 4-(3-(4-(1-(difluoromethyl)-1H-pyrazol-4-yl)phenyl)imidazo[1,2-a]pyridin-5-yl)cyclohex-3-ene-1-carbonitrile]", "values": [{"measurement": "IC50", "setting": "[1]", "result": "0.1 to 100", "unit": "nM"}, {"measurement": "IC50", "setting": "[2]", "result": "0.1 to 100", "unit": "nM"}]}, {"compound": "Cc1ccc2cc(-c3cnn4cccc(C5=CCC(C#N)CC5)c34)ccc2n1", "note": "(stereo not shown) [Compound P-0223, 4-(3-(2-methylquinolin-6-yl)pyrazolo[1,5-a]pyridin-4-yl)cyclohex-3-ene-1-carbonitrile]", "values": [{"measurement": "IC50", "setting": "[1]", "result": "0.1 to 100", "unit": "nM"}, {"measurement": "IC50", "setting": "[2]", "result": "0.1 to 100", "unit": "nM"}]}, {"compound": "Cn1cc(C#Cc2cnc3cccc(N4CCC5(CC4)CC(=O)NC5=O)n23)cn1", "note": "[Compound P-0238, 8-(3-((1-methyl-1H-pyrazol-4-yl)ethynyl)imidazo[1,2-a]pyridin-5-yl)-2,8-diazaspiro[4.5]decane-1,3-dione]", "values": [{"measurement": "IC50", "setting": "[1]", "result": "0.1 to 100", "unit": "nM"}, {"measurement": "IC50", "setting": "[2]", "result": "0.1 to 100", "unit": "nM"}]}, {"compound": "CC(C)(C#Cc1cccn2ncc(-c3ccc4c(cnn4C(F)F)c3)c12)C(=O)O", "note": "[Compound P-0067, 4-(3-(1-(difluoromethyl)-1H-indazol-5-yl)pyrazolo[1,5-a]pyridin-4-yl)-2,2-dimethylbut-3-ynoic acid]", "values": [{"measurement": "IC50", "setting": "[1]", "result": "100 to 1000", "unit": "nM"}, {"measurement": "IC50", "setting": "[2]", "result": "0.1 to 100", "unit": "nM"}]}, {"compound": "Cc1cc(C)n(-c2ccc(-c3cnn4cccc(N5CCC(C#N)CC5)c34)cc2)n1", "note": "[Compound P-0253, 1-(3-(4-(3,5-dimethyl-1H-pyrazol-1-yl)phenyl)pyrazolo[1,5-a]pyridin-4-yl)piperidine-4-carbonitrile]", "values": [{"measurement": "IC50", "setting": "[1]", "result": "100 to 1000", "unit": "nM"}, {"measurement": "IC50", "setting": "[2]", "result": "100 to 1000", "unit": "nM"}]}, {"compound": "Cc1ccc(-c2cnn3ccnc(C4=CCC(C(N)=O)CC4)c23)cn1", "note": "(stereo not shown) [Compound P-0152, 4-(3-(6-methylpyridin-3-yl)pyrazolo[1,5-a]pyrazin-4-yl)cyclohex-3-ene-1-carboxamide]", "values": [{"measurement": "IC50", "setting": "[1]", "result": "100 to 1000", "unit": "nM"}, {"measurement": "IC50", "setting": "[2]", "result": "0.1 to 100", "unit": "nM"}]}, {"compound": "N#CC1CC=C(c2nccn3ncc(-c4ccc(OCC(O)CN5CCOCC5)cc4)c23)CC1", "note": "(stereo not shown) [Compound P-0078, 4-(3-(4-(2-hydroxy-3-morpholinopropoxy)phenyl)pyrazolo[1,5-a]pyrazin-4-yl)cyclohex-3-ene-1-carbonitrile]", "values": [{"measurement": "IC50", "setting": "[1]", "result": "0.1 to 100", "unit": "nM"}, {"measurement": "IC50", "setting": "[2]", "result": "0.1 to 100", "unit": "nM"}]}, {"compound": "Cc1cc(-c2cnn3ccnc(C4=CCC(C#N)CC4)c23)ccc1-c1cnn(CC(C)(C)O)c1", "note": "(stereo not shown) [Compound P-0024, 4-(3-(4-(1-(2-hydroxy-2-methylpropyl)-1H-pyrazol-4-yl)-3 methylphenyl)pyrazolo[1,5-a]pyrazin-4-yl)cyclohex-3-ene-1-carbonitrile]", "values": [{"measurement": "IC50", "setting": "[1]", "result": "0.1 to 100", "unit": "nM"}, {"measurement": "IC50", "setting": "[2]", "result": "0.1 to 100", "unit": "nM"}]}]}
